# Reference: PubChem BioAssay AID2060340 (Molecular Pharmacology Branch, DTP, NCI, 2025)
# System: 349418-098-R-PDC spheroids, viability, % test/control
# Assay: Anticancer human tumor 349418-098-R-PDC patient-derived lung adenocarcinoma cell line growth inhibition [IpAb]
# Settings: spheroids with HUVEC and MSC; for IC50: curve of first compound; for viability, T/C: stronger effect = lower value
# Excerpt: Combinatorial screen of targeted agents with ipatasertib and abemaciclib in multi-cell type tumor spheroids
# A high-throughput screen of multi-cell type tumor spheroids was designed to identify active combinations of targeted small molecules and ipatasertib or abemaciclib. Complex spheroids include a stromal component modeled by human endothelial cells (HUVEC) and fibroblasts modeled by human mesenchymal stem cells (MSCs). The concentration ranges selected for each drug and investigational agent were based upon clinically achievable concentrations if the clinical Cmax of the agent was known.
# Compounds. The drugs and investigational agents: ipatasertib (NSC767898), abemaciclib(NSC768073), selumetinib (NSC741078), trametinib (758246), adavosertib (NSC754352), everolimus (NSC733504), sapanisertib (NSC764658), vemurafenib (NSC761431), venetoclax (NSC766270), copanlisib (NSC809693), apelisib (NSC765974), palbociblib (NSC758247), vemurafenib (NSC761431), dabrafenib (NSC764134), ravoxertinib (NSC781343), BMS-387032 (NSC767048), sotorasib (NSC818433), talazoparib (NSC767125) and afursertib (NSC778305), were obtained from the National Cancer Institute (NCI) Developmental Therapeutics Program Chemical Repository. The FDA-approved anticancer drug set is available from the NCI Developmental Therapeutics Program. […] The stock solutions were prepared in dimethyl sulfoxide (DMSO, Sigma-Aldrich, St. Louis, MO, cat. D2650) at 800-fold the tested concentration and stored at -70 degrees C prior to their use. All drugs and investigational agents were tested over a range starting from a high concentration at or near the clinical Cmax and decreasing in half-log increments. If the clinical Cmax for an agent had not been determined, the highest concentration tested was 10 microM.
# NCI60 Cell Culture. NCI60 cell lines were obtained from the NCI Developmental Therapeutics Program Tumor Repository. For each lot of cells, the Repository performed Applied Biosystems AmpFLSTR Identifiler testing with PCR amplification to confirm consistency with the published Identifier STR profile for each cell line. Cells were kept in continuous culture for no more than 20 passages. The optimal seeding densities for each of the cell lines at each time point assessed were determined prior to performing the concentration response studies. Briefly, the NCI60 human tumor lines were grown as monolayers in RPMI 1640 medium supplemented with 10% FBS and 2 mmol/L L-glutamine.
# An additional 9 lines were from the NCI60 cell line panel including MDA-MB-231 breast carcinoma, MDA-MB-468 breast carcinoma, MCF7 breast carcinoma, Hs578T breast carcinoma, MALME-3M melanoma, SK-MEL-2 melanoma, SK-OV-3 ovarian carcinoma, DU-145 prostate carcinoma, PC-3 prostate carcinoma, all cell lines along with major genetic alterations are listed on Table 2. Pooled donor human umbilical vein endothelial cells (HUVEC, Lonza, cat. CC-2519) and human mesenchymal stem cells (hMSC, Lonza, cat. PT-2501) were purchased from Lonza (Walkersville, MD).
# PDMR cell lines were grown in complete medium (DC medium): Dulbecco's modified Eagle's medium (DMEM)/F12 supplemented with 5% fetal bovine serum (FBS), 2 mM L-glutamine, 100 U/mL penicillin and 100 µg/ml streptomycin, 0.4 µg/ml hydrocortisone, 10 ng/ml epidermal growth factor (EGF) recombinant human protein, 24 µg/mL adenine, and 0.1 mg/mL primocin. During culture from frozen stock vials, PDMR cells were cultured in the same medium containing 10 µM Y-27632 (see Table 3). The PDCs were cultured in complete DMEM/F12 media without 10 microM Y-27632 dihydrochloride for at least two passages prior to the screen. The pooled donor HUVEC and hMSC were cultured in endothelial cell growth medium 2 (PromoCell, Heidelberg, Germany, cat. C-22011) and mesenchymal stem cell growth medium 2 (PromoCell, cat. C-28009), respectively. For all experiments, HUVEC and hMSC were used at passages </=5.
# […]
# 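Note: spheroids exposed to compounds for 7 days.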
smiles,measurement,setting,value
C=CCn1c(=O)c2cnc(Nc3ccc(N4CCN(C)CC4)cc3)nc2n1-c1cccc(C(C)(C)O)n1 + CC(C)NCC(C(=O)N1CCN(c2ncnc3c2C(C)CC3O)CC1)c1ccc(Cl)cc1,IC50,second compound 0.1 µM,154 nM
same,IC50,second compound 0.316 µM,84.5 nM
same,IC50,second compound 1 µM,< 31.6 nM
same,IC50,second compound 3.16 µM,< 31.6 nM
same,IC50,second compound 10 µM,< 31.6 nM
same,"viability, T/C","second compound 0.1 µM, first compound 0.0316 µM",96.2%
same,"viability, T/C","second compound 0.1 µM, first compound 0.1 µM",73%
same,"viability, T/C","second compound 0.1 µM, first compound 0.316 µM",11.5%
same,"viability, T/C","second compound 0.1 µM, first compound 1 µM",4.54%
same,"viability, T/C","second compound 0.1 µM, first compound 3.16 µM",4.88%
same,"viability, T/C","second compound 0.1 µM, first compound 10 µM",5.17%
same,"viability, T/C","second compound 0.316 µM, first compound 0.0316 µM",82%
same,"viability, T/C","second compound 0.316 µM, first compound 0.1 µM",44.5%
same,"viability, T/C","second compound 0.316 µM, first compound 0.316 µM",7.25%
same,"viability, T/C","second compound 0.316 µM, first compound 1 µM",4.35%
same,"viability, T/C","second compound 0.316 µM, first compound 3.16 µM",4.32%
same,"viability, T/C","second compound 0.316 µM, first compound 10 µM",4.08%
same,"viability, T/C","second compound 1 µM, first compound 0.0316 µM",29.7%
same,"viability, T/C","second compound 1 µM, first compound 0.1 µM",22.2%
same,"viability, T/C","second compound 1 µM, first compound 0.316 µM",5.45%
same,"viability, T/C","second compound 1 µM, first compound 1 µM",3.39%
same,"viability, T/C","second compound 1 µM, first compound 3.16 µM",3.96%
same,"viability, T/C","second compound 1 µM, first compound 10 µM",3.54%
same,"viability, T/C","second compound 3.16 µM, first compound 0.0316 µM",15.3%
same,"viability, T/C","second compound 3.16 µM, first compound 0.1 µM",12.3%
same,"viability, T/C","second compound 3.16 µM, first compound 0.316 µM",4.49%
same,"viability, T/C","second compound 3.16 µM, first compound 1 µM",2.96%
same,"viability, T/C","second compound 3.16 µM, first compound 3.16 µM",3.95%
same,"viability, T/C","second compound 3.16 µM, first compound 10 µM",3.35%
same,"viability, T/C","second compound 10 µM, first compound 0.0316 µM",9.2%
same,"viability, T/C","second compound 10 µM, first compound 0.1 µM",7.89%
same,"viability, T/C","second compound 10 µM, first compound 0.316 µM",4.37%
same,"viability, T/C","second compound 10 µM, first compound 1 µM",2.99%
same,"viability, T/C","second compound 10 µM, first compound 3.16 µM",3.49%
same,"viability, T/C","second compound 10 µM, first compound 10 µM",3.4%
Cn1cnc2c(F)c(Nc3ccc(Br)cc3Cl)c(C(=O)NOCCO)cc21 + CC(C)NCC(C(=O)N1CCN(c2ncnc3c2C(C)CC3O)CC1)c1ccc(Cl)cc1,IC50,second compound 0.1 µM,< 9.49 nM
same,IC50,second compound 0.316 µM,< 9.49 nM
same,IC50,second compound 1 µM,< 9.49 nM
same,IC50,second compound 3.16 µM,< 9.49 nM
same,IC50,second compound 10 µM,< 9.49 nM
same,"viability, T/C","second compound 0.1 µM, first compound 0.00949 µM",46.7%
same,"viability, T/C","second compound 0.1 µM, first compound 0.03 µM",38.4%
same,"viability, T/C","second compound 0.1 µM, first compound 0.0949 µM",41.8%
same,"viability, T/C","second compound 0.1 µM, first compound 0.3 µM",33.6%
same,"viability, T/C","second compound 0.1 µM, first compound 0.949 µM",18.8%
same,"viability, T/C","second compound 0.1 µM, first compound 3 µM",8.1%
same,"viability, T/C","second compound 0.316 µM, first compound 0.00949 µM",25.7%
same,"viability, T/C","second compound 0.316 µM, first compound 0.03 µM",24.6%
same,"viability, T/C","second compound 0.316 µM, first compound 0.0949 µM",21.4%
same,"viability, T/C","second compound 0.316 µM, first compound 0.3 µM",18.8%
same,"viability, T/C","second compound 0.316 µM, first compound 0.949 µM",10.2%
same,"viability, T/C","second compound 0.316 µM, first compound 3 µM",7.06%
same,"viability, T/C","second compound 1 µM, first compound 0.00949 µM",12.5%
same,"viability, T/C","second compound 1 µM, first compound 0.03 µM",10.5%
same,"viability, T/C","second compound 1 µM, first compound 0.0949 µM",10.3%
same,"viability, T/C","second compound 1 µM, first compound 0.3 µM",7.91%
same,"viability, T/C","second compound 1 µM, first compound 0.949 µM",6.83%
same,"viability, T/C","second compound 1 µM, first compound 3 µM",5.21%
same,"viability, T/C","second compound 3.16 µM, first compound 0.00949 µM",7.25%
same,"viability, T/C","second compound 3.16 µM, first compound 0.03 µM",6.51%
same,"viability, T/C","second compound 3.16 µM, first compound 0.0949 µM",5.52%
same,"viability, T/C","second compound 3.16 µM, first compound 0.3 µM",5.93%
same,"viability, T/C","second compound 3.16 µM, first compound 0.949 µM",4.94%
same,"viability, T/C","second compound 3.16 µM, first compound 3 µM",3.63%
same,"viability, T/C","second compound 10 µM, first compound 0.00949 µM",5.59%
same,"viability, T/C","second compound 10 µM, first compound 0.03 µM",5.09%
same,"viability, T/C","second compound 10 µM, first compound 0.0949 µM",4.7%
same,"viability, T/C","second compound 10 µM, first compound 0.3 µM",3.85%
same,"viability, T/C","second compound 10 µM, first compound 0.949 µM",3.8%
same,"viability, T/C","second compound 10 µM, first compound 3 µM",3.14%
